Experimental findings from patent EP3041353B1, “COMPOSITIONS COMPRISING BACTERIOSTATIC AGENTS AND BRILLIANT BLUE G” (priority 2013, dated 2015) are described below.

Bounds are passed on as bounds.

Data set [1] concerns Bacillus sp. Kind of data set: Bacteriostatic effect of BAK with BBG/BBR: turbidity after 24 h incubation. The data set is classed as cell-based. Set-up: key to Bakterienwachstum nach 24 h Inkubation: +: Bakterienwachstum nach 24 h Inkubation; -: kein Bakterienwachstum nach 24 h Inkubation. On the procedure:
(§1) Zur Untersuchung des Einflusses von BBG auf die bakteriostatische Wirkung wurden Bakterien 24 h mit erfindungsgemäßen Zusammensetzungen, Benzalkoniumchlorid (BAK) und Octenidin (Oct) als Bakteriostatikum enthielten, inkubiert. Wenn sich die Inkubationsmischung trübte, wurde das als Bakterienwachstum interpretiert. Zum Vergleich wurde Brillantblau R (BBR) anstelle von BBG eingesetzt. Die Ergebnisse sind in den Tabellen 1-4 wiedergegeben. Tabelle 1: Einfluss von BBG und BBR auf die bakteriostatische Wirkung von BAK gegenüber Escherichia coli (E. coli), + = Bakterienwachstum nach 24 h Inkubation, - = kein Bakterienwachstum nach 24 h Inkubation, R = Brillantblau R (BBR), G = Brillantblau G (BBG).
Tabelle 2: Einfluss von BBG und BBR auf die bakteriostatische Wirkung von BAK gegenüber Bacillus sp., + = Bakterienwachstum nach 24 h Inkubation, - = kein Bakterienwachstum nach 24 h Inkubation, R = Brillantblau R (BBR), G = Brillantblau G (BBG).

For data set [2], the system named is HCE-Zellen. The data set is classed as cell-based, human. On the procedure:
Die Erfindung wird im Folgenden rein zu Veranschaulichungszwecken anhand der angehängten Figuren und von Ausführungsbeispielen näher erläutert. • Figur 1 Effekt von 0,025% BBG auf die Toxizität von unterschiedlichen Konzentrationen (in Gew.-%) von Benzalkoniumchlorid (BAK) auf HCE-Zellen (HCE = human corneal epithelium, Menschliche Hornhautepithelzellen) bei verschiedenen Einwirkdauern (5, 30, 60 min). Oben: BAK ohne BBG. Unten: BAK mit BBG. Inkubationsmedium: Phosphat-gepufferte Kochsalzlösung (PBS). • Figur 2 Effekt von BBG (in Gew.-%) in unterschiedlichen Konzentrationen auf die Toxizität von BAK bei 0,003% (oben) und 0,008% (unten). PBS = Phosphat-gepufferte Kochsalzlösung; BBS = balanced salt solution (ausgeglichene Salzlösung). • Figur 3 Effekt von BBG (0,025 Gew.-%) auf die Toxizität von Octenidindihydrochlorid (Oct) in unterschiedlichen Konzentrationen (in Gew.-%) nach 5 min Inkubation (oben) und 30 min Inkubation (unten). Octenidin alone = Octenidin allein (ohne BBG). • Figur 4 Effekt von BBG (0,025 %) auf die Toxizität von Cetylpyridiniumchlorid (CPC) in unterschiedlichen Konzentrationen (in Gew.-%) nach 5 min Inkubation (oben) und 30 min Inkubation (unten). CPC alone = Cetylpyridiniumchlorid allein (ohne BBG). • Figur 5 Effekt von BBG (0,025 %) auf die Toxizität von Chlorhexidin (CHex) in Form von Chlorhexidindigluconat in unterschiedlichen Konzentrationen (in Gew.-%) nach 5 min Inkubation (oben) und 30 min Inkubation (unten). Chlorhexidin alone = Chlorhexidin allein (ohne BBG)
Figur 1 zeigt die Wirkung von BBG 0,025% Gew.-% auf die Toxizität von unterschiedlichen Konzentrationen (in Gew.-%) von Benzalkoniumchlorid (BAK) auf HCE-Zellen (HCE = human corneal epithelium, Menschliche Hornhautepithelzellen) bei verschiedenen Einwirkdauern (5, 30, 60 min).
Figur 2 zeigt die Wirkung von BBG (in Gew.-%) in unterschiedlichen Konzentrationen und zwei unterschiedlichen Medien (PBS und BSS) auf die Toxizität von BAK bei 0,003% (oben) und 0,008% (unten) bei HCE-Zellen. Die Schutzwirkung von BBG bei niedrigeren BAK-Konzentrationen setzt schon bei 0,003% BBG ein. Bei höheren BAK-Konzentrationen sind 0,015% notwendig.
Figur 3 zeigt die Wirkung von BBG (0,025 Gew.-%) auf die Toxizität von Octenidin (Oct) Form von Octenidindihydrochlorid in unterschiedlichen Konzentrationen (in Gew.-%) nach 5 min Inkubation (oben) und 30 min Inkubation (unten). Octenidin alone = Octenidin allein (ohne BBG). […] BBG (0,025 Gew.-%) kann diesen Effekt bei 5 min Inkubation (links) bis zu einer Oct-Konzentration von 0,01% (der höchsten getesteten Konzentration) verhindern. Bei 30 min Einwirkzeit (rechts) ist erst ab 0,009 Gew.-% Oct der Schutz nicht mehr maximal.
Die Figuren 4 und 5 zeigen die Wirkung von BBG (0,025 Gew.-%) auf die Toxizität von Cetylpyridiniumchlorid (CPC, Fig. 4) und Chlorhexidin (CHex in Form von Chlorhexidindigluconat, Fig. 5) in unterschiedlichen Konzentrationen (in Gew.-%) nach 5 min Inkubation (jeweils oben) und 30 min Inkubation (jeweils unten).

In data set [3] the test system is Bacillus megaterium. Kind of data set: Bacteriostatic effect of Octenidin with BBG: turbidity after 24 h incubation. The data set is classed as cell-based. More on the design: key: +: Bakterienwachstum nach 24 h Inkubation; -: kein Bakterienwachstum nach 24 h Inkubation; +/-: geringes Wachstum nach 24 h Inkubation. On the procedure: as §1
Tabelle 4: Einfluss von BBG auf die bakteriostatische Wirkung von Octenidin (Oct) gegenüber Gram-positiven Bakterien., + = Bakterienwachstum nach 24 h Inkubation, - = kein Bakterienwachstum nach 24 h Inkubation, +/- = geringes Wachstum nach 24 h Inkubation, BBG = Brillantblau G.

As for `CCOc1ccc(Nc2ccc(C(=C3C=CC(=[N+](CC)Cc4cccc(S(=O)(=O)[O-])c4)C=C3C)c3ccc(N(CC)Cc4cccc(S(=O)(=O)O)c4)cc3C)cc2)cc1` [BBG, Brillantblau G], the “Bakterienwachstum nach 24 h Inkubation” value in data set [1] (0.007% G + BAK 0.001%) is “-”; in data set [1] (0.007% G + BAK 0.01%), “-”; in data set [1] (0.030% G, Kein BAK) it was “+”; in data set [3] (0,015% BBG + Octenidin 0,003%) it was “+/-”; in data set [3] (0,030% BBG + Octenidin 0,005%), “+/-”; in data set [3] (0,030% BBG + Octenidin 0,007%) it was “+/-”. Also, the “Einfluss auf das Bakterienwachstum” value in data set [1] (dye alone, no BAK (rechte Spalte, Tabelle 2)) is reported as “beeinflussen das Bakterienwachstum nicht”. Also, the Überleben result in data set [2] is “leichten Erniedrigung des Überlebens”. In data set [2] (BBG 0,025% with BAK, 60 min Einwirkzeit, PBS (Figur 1)), the “Schutzwirkung (=erhöhtes Zellüberleben)” value was “noch deutlich vorhanden”. Also, the “CPC-Konzentration, bis zu der der Schutzeffekt gegeben ist” value in data set [2] (BBG 0,025 Gew.-% with CPC, 5 min and also 30 min Einwirkzeit (Figur 4)) is ~0,02%. For the same compound, the Schutzeffekt result in data set [2] (BBG 0,025 Gew.-% with Chlorhexidin (Chlorhexidindigluconat), 5 and 30 min, compared with the CPC result (Figur 5)) is on record as “Ähnliches gilt”. Also, in data set [2] (BBG 0,025 Gew.-%, 5 min Inkubation, highest Oct concentration tested (Figur 3)), the “Oct-Konzentration, bis zu der BBG den zellschädigenden Effekt verhindert” value is ≤ 0,01%. For the same compound, in data set [2] (BBG 0,025 Gew.-%, 30 min Einwirkzeit (Figur 3)), the “Oct-Konzentration, ab der der Schutz nicht mehr maximal ist” value is given as ≥ 0,009 Gew.-%. In addition, the “Schutzwirkung (zelltoxische Wirkung der Bakteriostatika bei gleichzeitiger Gabe)” value in data set [2] (dye given together with the bacteriostatic agent) is recorded as “stark reduziert”. Also, in data set [2] (höhere BAK-Konzentration (BAK 0,008%), PBS and BSS (Figur 2)), the “BBG-Konzentration, die für die Schutzwirkung notwendig ist” value is reported as 0,015%. In data set [2] (niedrigere BAK-Konzentration (BAK 0,003%), PBS and BSS (Figur 2)), the “BBG-Konzentration, bei der die Schutzwirkung einsetzt” value was 0,003%.
